Test results published in patent US20260256792A1, “TREATMENT OF CHRONIC SPONTANEOUS URTICARIA BY ADMINISTERING (R)-2-[3-[4-AMINO-3-(2-FLUORO-4-PHENOXY-PHENYL)PYRAZOLO[3,4-D]PYRIMIDIN-1-YL]PIPERIDINE-1-CARBONYL]-4-METHYL-4-[4-(OXETAN-3-YL)PIPERAZIN-1-YL]PENT-2-ENENITRILE” (priority 2023, published 2026).

Tested on: angioedema in CSU patients
Assay: Phase 2 CSU study: angioedema activity score over 7 days (AAS7)
Format: in vivo, human
Design: AAS7, Median / AAS7 Change from baseline, Median: scale not given here
Details: Omalizumab-Naïve Population
From the text: The study comprises a 12 week, randomized, double-blind, placebo-controlled, multi-center, dose-ranging efficacy and safety phase, followed by a 40 week open label extension (OLE) phase (see FIG. 1). The study consists of three phases and an optional OLE phase. […] The weekly angioedema activity score (AAS7) was proposed as a tertiary endpoint. […] Patients were to complete the AAS using the e-diary. The e-diary was to be used once daily on the same time of each day recording of participant's answers to the angioedema activity score over 7 days (AAS7) questionnaire.

Structure (SMILES): CC(C)(C=C(C#N)C(=O)N1CCC[C@@H](n2nc(-c3ccc(Oc4ccccc4)cc3F)c3c(N)ncnc32)C1)N1CCN(C2COC2)CC1 [rilzabrutinib, (R)-2-[3-[4-amino-3-(2-fluoro-4-phenoxy-phenyl)pyrazolo[3,4-d]pyrimidin-1-yl]piperidine-1-carbonyl]-4-methyl-4-[4-(oxetan-3-yl)piperazin-1-yl]pent-2-enenitrile]
- AAS7, Median (400 mg BID, Week 10): 0.00
- AAS7 Change from baseline, Mean (SD) (400 mg BID, Week 10): −29.84 (25.74)
- AAS7 Change from baseline, Median (400 mg BID, Week 10): −24.00
- AAS7 Percent change from baseline, Mean (SD) (400 mg BID, Week 10): −45.78 (130.13) %
- AAS7 Percent change from baseline, Median (400 mg BID, Week 10): −100.00%
- AAS7, Median (400 mg BID, Week 11): 0.00
- AAS7 Change from baseline, Mean (SD) (400 mg BID, Week 11): −35.05 (24.68)
- AAS7 Change from baseline, Median (400 mg BID, Week 11): −29.17
- AAS7 Percent change from baseline, Mean (SD) (400 mg BID, Week 11): −73.13 (48.67) %
- AAS7 Percent change from baseline, Median (400 mg BID, Week 11): −100.00%
- AAS7, Median (400 mg BID, Week 12): 0.00
- AAS7 Change from baseline, Mean (SD) (400 mg BID, Week 12): −35.73 (26.59)
- AAS7 Change from baseline, Median (400 mg BID, Week 12): −37.00
- AAS7 Percent change from baseline, Mean (SD) (400 mg BID, Week 12): −76.62 (36.34) %
- AAS7 Percent change from baseline, Median (400 mg BID, Week 12): −100.00%
- AAS7, Mean (SD) (400 mg QPM, End of Study): 17.46 (29.82)
- AAS7, Median (400 mg QPM, End of Study): 4.00
- AAS7 Change from baseline, Mean (SD) (400 mg QPM, End of Study): −4.04 (35.07)
- AAS7 Change from baseline, Median (400 mg QPM, End of Study): −8.50
- AAS7 Percent change from baseline, Mean (SD) (400 mg QPM, End of Study): −14.64 (160.23) %
- AAS7 Percent change from baseline, Median (400 mg QPM, End of Study): −92.00%
- AAS7, Median (400 mg QPM, Week 1): 39.00
- AAS7 Change from baseline, Mean (SD) (400 mg QPM, Week 1): −18.63 (22.01)
- AAS7 Change from baseline, Median (400 mg QPM, Week 1): −19.00
- AAS7 Percent change from baseline, Mean (SD) (400 mg QPM, Week 1): −30.81 (44.93) %
- AAS7 Percent change from baseline, Median (400 mg QPM, Week 1): −35.35%
- AAS7, Median (400 mg QPM, Week 2): 31.50
- AAS7 Change from baseline, Mean (SD) (400 mg QPM, Week 2): −20.23 (24.12)
- AAS7 Change from baseline, Median (400 mg QPM, Week 2): −11.00
- AAS7 Percent change from baseline, Mean (SD) (400 mg QPM, Week 2): −36.22 (43.96) %
- AAS7 Percent change from baseline, Median (400 mg QPM, Week 2): −31.31%
- AAS7, Median (400 mg QPM, Week 3): 34.00
- AAS7 Change from baseline, Mean (SD) (400 mg QPM, Week 3): −20.88 (26.24)
- AAS7 Change from baseline, Median (400 mg QPM, Week 3): −13.00
- AAS7 Percent change from baseline, Mean (SD) (400 mg QPM, Week 3): −29.46 (63.83) %
- AAS7 Percent change from baseline, Median (400 mg QPM, Week 3): −26.00%
- AAS7, Median (400 mg QPM, Week 4): 35.00
- AAS7 Change from baseline, Mean (SD) (400 mg QPM, Week 4): −23.93 (24.26)
- AAS7 Change from baseline, Median (400 mg QPM, Week 4): −17.00
- AAS7 Percent change from baseline, Mean (SD) (400 mg QPM, Week 4): −46.35 (39.61) %
- AAS7 Percent change from baseline, Median (400 mg QPM, Week 4): −46.27%
- AAS7, Median (400 mg QPM, Week 5): 23.50
- AAS7 Change from baseline, Mean (SD) (400 mg QPM, Week 5): −29.64 (28.55)
- AAS7 Change from baseline, Median (400 mg QPM, Week 5): −17.00
- AAS7 Percent change from baseline, Mean (SD) (400 mg QPM, Week 5): −55.69 (41.16) %
- AAS7 Percent change from baseline, Median (400 mg QPM, Week 5): −59.46%
- AAS7, Median (400 mg QPM, Week 6): 24.38
- AAS7 Change from baseline, Mean (SD) (400 mg QPM, Week 6): −28.36 (28.62)
- AAS7 Change from baseline, Median (400 mg QPM, Week 6): −23.63
- AAS7 Percent change from baseline, Mean (SD) (400 mg QPM, Week 6): −47.92 (45.31) %
- AAS7 Percent change from baseline, Median (400 mg QPM, Week 6): −55.14%
- AAS7, Median (400 mg QPM, Week 7): 30.00
- AAS7 Change from baseline, Mean (SD) (400 mg QPM, Week 7): −26.95 (30.21)
- AAS7 Change from baseline, Median (400 mg QPM, Week 7): −28.00
- AAS7 Percent change from baseline, Mean (SD) (400 mg QPM, Week 7): −33.18 (69.78) %
- AAS7 Percent change from baseline, Median (400 mg QPM, Week 7): −50.00%
- AAS7, Median (400 mg QPM, Week 8): 18.00
- AAS7 Change from baseline, Mean (SD) (400 mg QPM, Week 8): −29.80 (30.38)
- AAS7 Change from baseline, Median (400 mg QPM, Week 8): −28.00
- AAS7 Percent change from baseline, Mean (SD) (400 mg QPM, Week 8): −49.05 (70.23) %
- AAS7 Percent change from baseline, Median (400 mg QPM, Week 8): −66.00%
- AAS7, Median (400 mg QPM, Week 9): 26.30
- AAS7 Change from baseline, Mean (SD) (400 mg QPM, Week 9): −28.66 (27.25)
- AAS7 Change from baseline, Median (400 mg QPM, Week 9): −29.00
- AAS7 Percent change from baseline, Mean (SD) (400 mg QPM, Week 9): −46.39 (66.49) %
- AAS7 Percent change from baseline, Median (400 mg QPM, Week 9): −56.26%
- AAS7, Median (400 mg QPM, Week 10): 28.00
- AAS7 Change from baseline, Mean (SD) (400 mg QPM, Week 10): −28.93 (28.14)
- AAS7 Change from baseline, Median (400 mg QPM, Week 10): −28.92
- AAS7 Percent change from baseline, Mean (SD) (400 mg QPM, Week 10): −46.90 (68.16) %
- AAS7 Percent change from baseline, Median (400 mg QPM, Week 10): −50.17%
- AAS7, Median (400 mg QPM, Week 11): 30.10
- AAS7 Change from baseline, Mean (SD) (400 mg QPM, Week 11): −29.18 (28.09)
- AAS7 Change from baseline, Median (400 mg QPM, Week 11): −32.40
- AAS7 Percent change from baseline, Mean (SD) (400 mg QPM, Week 11): −47.96 (69.01) %
- AAS7 Percent change from baseline, Median (400 mg QPM, Week 11): −52.90%
- AAS7, Median (400 mg QPM, Week 12): 26.83
- AAS7 Change from baseline, Mean (SD) (400 mg QPM, Week 12): −29.03 (28.74)
- AAS7 Change from baseline, Median (400 mg QPM, Week 12): −28.00
- AAS7 Percent change from baseline, Mean (SD) (400 mg QPM, Week 12): −48.34 (71.54) %
- AAS7 Percent change from baseline, Median (400 mg QPM, Week 12): −59.34%
- AAS7, Mean (SD) (400 mg TID, End of Study): 26.75 (33.68)
- AAS7, Median (400 mg TID, End of Study): 16.00
- AAS7 Change from baseline, Mean (SD) (400 mg TID, End of Study): −21.25 (14.29)
- AAS7 Change from baseline, Median (400 mg TID, End of Study): −27.00
- AAS7 Percent change from baseline, Mean (SD) (400 mg TID, End of Study): −58.11 (43.26) %
- AAS7 Percent change from baseline, Median (400 mg TID, End of Study): −66.21%
- AAS7, Median (400 mg TID, Week 1): 9.00
- AAS7 Change from baseline, Mean (SD) (400 mg TID, Week 1): −28.96 (27.34)
- AAS7 Change from baseline, Median (400 mg TID, Week 1): −26.00
- AAS7 Percent change from baseline, Mean (SD) (400 mg TID, Week 1): −56.39 (51.49) %
- AAS7 Percent change from baseline, Median (400 mg TID, Week 1): −89.41%
- AAS7, Median (400 mg TID, Week 2): 9.33
- AAS7 Change from baseline, Mean (SD) (400 mg TID, Week 2): −30.89 (28.32)
- AAS7 Change from baseline, Median (400 mg TID, Week 2): −27.00
- AAS7 Percent change from baseline, Mean (SD) (400 mg TID, Week 2): −58.84 (53.09) %
- AAS7 Percent change from baseline, Median (400 mg TID, Week 2): −81.97%
- AAS7, Median (400 mg TID, Week 3): 0.00
- AAS7 Change from baseline, Mean (SD) (400 mg TID, Week 3): −33.83 (29.99)
- AAS7 Change from baseline, Median (400 mg TID, Week 3): −27.00
- AAS7 Percent change from baseline, Mean (SD) (400 mg TID, Week 3): −69.93 (48.65) %
- AAS7 Percent change from baseline, Median (400 mg TID, Week 3): −100.00%
- AAS7, Median (400 mg TID, Week 4): 5.00
- AAS7 Change from baseline, Mean (SD) (400 mg TID, Week 4): −36.18 (24.55)
- AAS7 Change from baseline, Median (400 mg TID, Week 4): −27.00
- AAS7 Percent change from baseline, Mean (SD) (400 mg TID, Week 4): −76.56 (30.09) %
- AAS7 Percent change from baseline, Median (400 mg TID, Week 4): −93.33%
- AAS7, Median (400 mg TID, Week 5): 6.00
- AAS7 Change from baseline, Mean (SD) (400 mg TID, Week 5): −37.08 (26.17)
- AAS7 Change from baseline, Median (400 mg TID, Week 5): −30.00
- AAS7 Percent change from baseline, Mean (SD) (400 mg TID, Week 5): −73.55 (35.00) %
- AAS7 Percent change from baseline, Median (400 mg TID, Week 5): −88.24%
- AAS7, Median (400 mg TID, Week 6): 0.00
- AAS7 Change from baseline, Mean (SD) (400 mg TID, Week 6): −32.35 (30.51)
- AAS7 Change from baseline, Median (400 mg TID, Week 6): −27.00
- AAS7 Percent change from baseline, Mean (SD) (400 mg TID, Week 6): −63.91 (58.28) %
- AAS7 Percent change from baseline, Median (400 mg TID, Week 6): −100.00%
- AAS7, Median (400 mg TID, Week 7): 2.50
- AAS7 Change from baseline, Mean (SD) (400 mg TID, Week 7): −32.23 (26.57)
